Data set [1] addresses T1, Matrix metalloproteinase-14 (Homo sapiens, UniProt P50281). Kind of data set: Inhibition of human recombinant MMP14 catalytic domain by substrate hydrolysis based fluorescence spectrophotometry.
Data set [2] deals with T2, Interstitial collagenase (Homo sapiens) (UniProt P03956).
T2 sequence (whole entry): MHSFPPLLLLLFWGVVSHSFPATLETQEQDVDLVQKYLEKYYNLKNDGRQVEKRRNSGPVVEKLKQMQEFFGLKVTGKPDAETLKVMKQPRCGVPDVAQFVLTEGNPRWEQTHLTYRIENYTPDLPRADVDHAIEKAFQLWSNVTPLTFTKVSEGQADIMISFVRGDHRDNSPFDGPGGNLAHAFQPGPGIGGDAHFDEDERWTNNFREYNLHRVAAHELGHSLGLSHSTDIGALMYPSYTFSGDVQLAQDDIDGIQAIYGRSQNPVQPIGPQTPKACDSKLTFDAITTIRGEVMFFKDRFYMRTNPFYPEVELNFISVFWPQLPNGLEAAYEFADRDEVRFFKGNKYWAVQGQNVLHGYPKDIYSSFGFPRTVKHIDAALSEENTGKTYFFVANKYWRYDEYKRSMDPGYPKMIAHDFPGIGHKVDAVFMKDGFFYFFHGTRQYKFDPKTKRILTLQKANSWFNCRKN
Kind of data set: Inhibition of human recombinant MMP1 catalytic domain at 20 uM by substrate hydrolysis based fluorescence spectrophotometry.

The nature of data set [3]: Half life in rat liver microsomes at 100 uM by HPLC. Format: ADME, Microsome. (In general: Microsomes from liver hold many membrane-bound enzymes, among them those of drug oxidation.)
Data set [4] can be described thus: Intrinsic clearance in rat liver microsomes at 100 uM by HPLC. Format: ADME, Microsome.
The target of data set [5] is T3, Matrix metalloproteinase-9 (Homo sapiens, UniProt P14780). Kind of data set: Inhibition of human recombinant MMP9 catalytic domain assessed as dissociation rate constant by substrate hydrolysis based fluorescence spectrophotometry.
T3 sequence (P14780 whole entry, the tested form may be a part): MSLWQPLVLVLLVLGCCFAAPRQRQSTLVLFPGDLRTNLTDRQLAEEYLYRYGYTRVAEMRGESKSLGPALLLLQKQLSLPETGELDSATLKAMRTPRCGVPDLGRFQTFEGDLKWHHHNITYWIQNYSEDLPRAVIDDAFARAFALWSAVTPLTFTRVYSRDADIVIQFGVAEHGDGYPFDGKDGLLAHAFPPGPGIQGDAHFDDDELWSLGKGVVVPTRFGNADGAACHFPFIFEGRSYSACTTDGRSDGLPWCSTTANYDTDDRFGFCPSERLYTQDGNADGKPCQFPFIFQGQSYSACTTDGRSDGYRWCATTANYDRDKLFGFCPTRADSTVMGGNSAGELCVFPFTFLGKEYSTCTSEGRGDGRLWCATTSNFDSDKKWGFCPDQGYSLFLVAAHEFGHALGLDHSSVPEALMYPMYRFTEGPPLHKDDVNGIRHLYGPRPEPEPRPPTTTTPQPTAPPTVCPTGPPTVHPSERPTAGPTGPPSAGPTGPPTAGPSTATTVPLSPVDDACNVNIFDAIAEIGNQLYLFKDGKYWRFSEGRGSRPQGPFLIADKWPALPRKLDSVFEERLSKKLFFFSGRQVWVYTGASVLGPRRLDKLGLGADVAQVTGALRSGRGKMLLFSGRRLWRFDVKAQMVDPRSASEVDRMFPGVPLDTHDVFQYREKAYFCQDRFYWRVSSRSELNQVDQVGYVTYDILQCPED
The target in data set [6] is T1, Matrix metalloproteinase-14. Kind of data set: Inhibition of human recombinant MMP14 catalytic domain assessed as dissociation rate constant by substrate hydrolysis based fluorescence spectrophotometry.
For data set [7], the target named is T4, Stromelysin-1 (Homo sapiens, UniProt P08254). Kind of data set: Inhibition of human recombinant MMP3 catalytic domain at 20 uM by substrate hydrolysis based fluorescence spectrophotometry.
Target sequence in this assay (P08254 100-477 limits assumed): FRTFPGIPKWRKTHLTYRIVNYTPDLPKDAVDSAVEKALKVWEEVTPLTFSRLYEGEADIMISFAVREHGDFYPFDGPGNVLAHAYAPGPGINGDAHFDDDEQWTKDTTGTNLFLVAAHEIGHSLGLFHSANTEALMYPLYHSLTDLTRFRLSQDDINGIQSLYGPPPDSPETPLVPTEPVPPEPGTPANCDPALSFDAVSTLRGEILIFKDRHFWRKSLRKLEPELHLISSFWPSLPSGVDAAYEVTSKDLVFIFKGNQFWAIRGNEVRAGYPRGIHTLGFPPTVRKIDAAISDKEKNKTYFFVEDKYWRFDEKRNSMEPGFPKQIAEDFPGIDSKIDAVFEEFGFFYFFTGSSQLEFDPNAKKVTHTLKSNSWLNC
Another data set can be described thus: physchem. The conditions noted are these: aqueous.
The target of data set [8] is T5, Matrilysin (Homo sapiens) (UniProt P09237).
T5 sequence (whole entry): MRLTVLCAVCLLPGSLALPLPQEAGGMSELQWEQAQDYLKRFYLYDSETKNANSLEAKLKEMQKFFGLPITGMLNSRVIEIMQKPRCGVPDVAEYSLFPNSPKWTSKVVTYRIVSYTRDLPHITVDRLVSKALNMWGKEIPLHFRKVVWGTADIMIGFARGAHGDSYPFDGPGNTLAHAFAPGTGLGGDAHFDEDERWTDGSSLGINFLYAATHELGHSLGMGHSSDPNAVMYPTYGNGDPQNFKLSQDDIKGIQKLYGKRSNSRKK
Kind of data set: Inhibition of human recombinant MMP7 catalytic domain at 20 uM by substrate hydrolysis based fluorescence spectrophotometry.

The target in data set [9] is 72 kDa type IV collagenase (Homo sapiens, UniProt P08253).
72 kDa type IV collagenase, sequence (P08253 whole entry): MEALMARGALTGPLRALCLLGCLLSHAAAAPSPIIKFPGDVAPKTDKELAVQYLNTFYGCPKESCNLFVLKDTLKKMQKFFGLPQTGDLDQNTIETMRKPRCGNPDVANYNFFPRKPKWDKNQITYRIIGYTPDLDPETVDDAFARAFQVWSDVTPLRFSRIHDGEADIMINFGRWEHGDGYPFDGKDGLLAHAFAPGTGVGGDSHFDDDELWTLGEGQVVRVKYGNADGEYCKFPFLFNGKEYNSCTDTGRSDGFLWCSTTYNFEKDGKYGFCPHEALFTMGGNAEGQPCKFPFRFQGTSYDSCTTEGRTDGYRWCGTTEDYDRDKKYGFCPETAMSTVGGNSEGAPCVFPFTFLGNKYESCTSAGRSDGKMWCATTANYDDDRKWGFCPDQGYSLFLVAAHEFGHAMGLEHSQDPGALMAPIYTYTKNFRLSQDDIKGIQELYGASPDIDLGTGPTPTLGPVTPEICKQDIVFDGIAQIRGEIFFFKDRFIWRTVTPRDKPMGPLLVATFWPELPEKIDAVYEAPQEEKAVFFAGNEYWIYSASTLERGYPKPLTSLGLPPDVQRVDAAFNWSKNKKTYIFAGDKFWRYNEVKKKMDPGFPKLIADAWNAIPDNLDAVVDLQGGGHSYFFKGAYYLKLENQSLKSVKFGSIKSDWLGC
Description: Inhibition of MMP2 by substrate hydrolysis based fluorescence spectrophotometry
The target of data set [10] is T3, Matrix metalloproteinase-9.
Description: Inhibition of human recombinant MMP9 catalytic domain by substrate hydrolysis based fluorescence spectrophotometry
Data set [11] concerns the target T2, Interstitial collagenase (Homo sapiens). Kind of data set: Inhibition of human recombinant MMP1 catalytic domain at 200 uM by substrate hydrolysis based fluorescence spectrophotometry.
The nature of data set [12]: Half life in rat liver microsomes at 200 uM by HPLC. The class given is ADME, Microsome.
For data set [13], the target named is T5, Matrilysin (Homo sapiens). Kind of data set: Inhibition of human recombinant MMP7 catalytic domain assessed as dissociation rate constant by substrate hydrolysis based fluorescence spectrophotometry.
For another data set, the target named is T6, Matrilysin (Homo sapiens, UniProt P09237).
T6 sequence (P09237 whole entry): T5 sequence (whole entry)

Data set [14] can be described thus: Intrinsic clearance in rat liver microsomes at 200 uM by HPLC. Format: ADME, Microsome.
Data set [15] has as its target T4, Stromelysin-1. As to the kind of experiment: Inhibition of human recombinant MMP3 catalytic domain at 200 uM by substrate hydrolysis based fluorescence spectrophotometry.
Target sequence in this assay (P08254 100-477 limits assumed): as the sequence (P08254 100-477 limits assumed) above
Data set [16] addresses T4, Stromelysin-1.
Target sequence in this assay (P08254 whole entry, the tested form may be a part): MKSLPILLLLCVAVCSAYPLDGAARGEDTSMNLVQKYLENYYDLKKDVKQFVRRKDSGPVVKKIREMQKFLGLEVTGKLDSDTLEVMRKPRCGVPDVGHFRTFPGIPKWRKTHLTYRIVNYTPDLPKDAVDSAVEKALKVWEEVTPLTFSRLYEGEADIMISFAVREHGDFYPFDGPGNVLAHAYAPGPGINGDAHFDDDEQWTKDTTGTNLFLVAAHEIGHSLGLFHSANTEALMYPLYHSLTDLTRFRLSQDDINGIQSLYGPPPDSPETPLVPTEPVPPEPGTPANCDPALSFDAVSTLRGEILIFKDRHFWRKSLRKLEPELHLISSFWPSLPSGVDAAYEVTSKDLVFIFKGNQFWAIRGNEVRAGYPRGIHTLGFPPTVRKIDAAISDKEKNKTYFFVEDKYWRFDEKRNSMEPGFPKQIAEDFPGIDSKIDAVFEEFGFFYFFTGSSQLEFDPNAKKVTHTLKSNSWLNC
Description: Inhibition of human recombinant MMP3 catalytic domain by substrate hydrolysis based fluorescence spectrophotometry
The next data set has as its target T7, Interstitial collagenase (Homo sapiens, UniProt P03956).
T7 sequence (P03956 whole entry): T2 sequence (whole entry)

The target in data set [17] is T5, Matrilysin (Homo sapiens). Kind of data set: Inhibition of human recombinant MMP7 catalytic domain at 40 uM by substrate hydrolysis based fluorescence spectrophotometry.
The target of data set [18] is T2, Interstitial collagenase (Homo sapiens). As to the kind of experiment: Inhibition of human recombinant MMP1 catalytic domain at 40 uM by substrate hydrolysis based fluorescence spectrophotometry.
The target in data set [19] is T5, Matrilysin (Homo sapiens). Kind of data set: Inhibition of human recombinant MMP7 catalytic domain at 30 uM by substrate hydrolysis based fluorescence spectrophotometry.
Data set [20] has as its target T2, Interstitial collagenase (Homo sapiens). As to the kind of experiment: Inhibition of human recombinant MMP1 catalytic domain at 30 uM by substrate hydrolysis based fluorescence spectrophotometry.

≈ marks a conversion by molar mass, not a printed value. Calls of active or inactive are those of the source.

Description for physchem: Aqueous solubility of the compound

As to `CCCS(=O)(=O)Oc1ccc(Oc2ccc(S(=O)(=O)CC3CS3)cc2)cc1` (stereo not given), the Ki is 240 nM in [1], 34 nM in data set [9] and 520 nM in data set [10]. Further, the inhibition result in data set [2] was “inactive”. Further, in [3], the half-life at 100 µM is 12.6 min. In [4], this compound gave a CLint scaled at 100 µM of 111 mL/min/kg. Further, the results for the Activity in [5] and in data set [6] were 1.6 ×10⁻³ /s and 1.8 ×10⁻³ /s, respectively. Also, the inhibition at Stromelysin-1 [7] is 22%; in [8], 5%. Besides, the solubility in “physchem” was found to be 4 µg/mL (≈ 9.33 µM).

Regarding `O=S(=O)(CC1CS1)c1ccc(Oc2ccccc2)cc1` (stereo not given), in data set [1], the inhibition constant Ki came out at 110 nM. This compound registered a half-life at 100 µM in data set [3] of 12 min. In data set [4], the intrinsic clearance (CLint scaled) at 100 µM is 117 mL/min/kg. In addition, the Activity in data set [5] is 7.1 ×10⁻³ /s.

`CCS(=O)(=O)Oc1ccc(S(=O)(=O)CC2CS2)cc1` (stereo not given): the inhibition constant Ki in [1] came to 11000 nM; at Matrilysin, 26000 nM; in [9], 90 nM; in data set [10] it was 12000 nM. Besides, the figures for the inhibition (in [11]; at Stromelysin-1 [15]) were 7% and 62%, respectively. The Activity in [5] came to 1.8 ×10⁻³ /s; in data set [6], 1.6 ×10⁻³ /s; in [13], 0.6 ×10⁻³ /s. The same compound had a half-life at 200 µM in data set [12] of 31.8 min. The compound also yielded a solubility in the data set “physchem” of 114 µg/mL (≈ 354 µM). The compound further showed an intrinsic clearance (CLint scaled) at 200 µM in data set [14] of 44.2 mL/min/kg.

As to `CC(C)CS(=O)(=O)Oc1ccc(S(=O)(=O)CC2CS2)cc1` (stereo not given), the inhibition constant Ki in [1] turned out to be 20000 nM; at Matrilysin, 120000 nM; in data set [9], 240 nM; in data set [10], 3500 nM. The inhibition result in data set [11] is “inactive”. Also, the Activity in data set [5] is 1.9 ×10⁻³ /s; in [6], 1.7 ×10⁻³ /s; in data set [13] it was 1.4 ×10⁻³ /s. For the same compound, the half-life at 200 µM in [12] came out at 36.1 min. The amount in solution in the data set “physchem” (solubility) came to 230 µg/mL (≈ 656 µM). Besides, in data set [14], the intrinsic metabolic clearance (CLint scaled) at 200 µM is 38.8 mL/min/kg. Further, the inhibition at Stromelysin-1 [15] was found to be 25%.

In data set [3], `CS(=O)(=O)Oc1ccc(Oc2ccc(S(=O)(=O)CC3CS3)cc2)cc1` (stereo not given) came in with a half-life at 100 µM of 24.8 min. The compound also had a CLint scaled at 100 µM in data set [4] of 56.5 mL/min/kg. Also, in data set [5], the Activity stood at 0.1 ×10⁻³ /s. Besides, the concentration in solution in the data set “physchem” (solubility) was 3.5 µg/mL (≈ 8.74 µM). The same compound yielded an inhibition constant Ki at Stromelysin-1 [16] of 600 nM.

As to `CS(=O)(=O)Oc1ccc(S(=O)(=O)CC2CS2)cc1` (stereo not given), the inhibition constant (Ki) in data set [1] is 480 nM; on Interstitial collagenase, 41000 nM; on Matrilysin, 11000 nM; in [9] it was 390 nM; in [10] it was 3900 nM. Besides, the Activity turned out to be 0.25 ×10⁻³ /s in data set [5], 0.2 ×10⁻³ /s in data set [6] and 0.5 ×10⁻³ /s in [13]. Further, in data set [12], the half-life at 200 µM was found to be 45.3 min. This compound also displayed a solubility in the data set “physchem” of 167 µg/mL (≈ 542 µM). In data set [14], this compound gave a CLint scaled at 200 µM of 31 mL/min/kg. The inhibition on Stromelysin-1 [15] was determined as 29%.

As to `CCCS(=O)(=O)Oc1ccc(S(=O)(=O)CC2CS2)cc1` (stereo not given), the inhibitory constant (Ki) in data set [1] stood at 32000 nM; at Matrilysin, 35000 nM; in [9] it was 280 nM; in data set [10], 6200 nM. In addition, the results for the inhibition (in [11]; at Stromelysin-1 [15]) were 30% and 58%, respectively. The Activity was 0.9 ×10⁻³ /s in data set [5], 1.5 ×10⁻³ /s in [6] and 0.8 ×10⁻³ /s in data set [13]. Further, the half-life at 200 µM in [12] is 29.8 min. Moreover, the solubility in “physchem” was found to be 96 µg/mL (≈ 285 µM). For the same compound, the intrinsic clearance (CLint scaled) at 200 µM in data set [14] was 47.2 mL/min/kg.

As for `CCS(=O)(=O)Oc1ccc(Oc2ccc(S(=O)(=O)CC3CS3)cc2)cc1` (stereo not given), the inhibitory constant (Ki) in data set [1] was determined as 360 nM; in [9], 70 nM; in data set [10], 330 nM. This compound also came in with a half-life at 100 µM in data set [3] of 35.9 min. Also, the intrinsic clearance (CLint scaled) at 100 µM in data set [4] was 39 mL/min/kg. In addition, the Activity in [5] came to 1.5 ×10⁻³ /s; in [6], 9 ×10⁻³ /s. Moreover, the inhibition came out at 8% in data set [17] and 38% on Stromelysin-1 [7]. This compound also displayed a solubility in the data set “physchem” of 4.1 µg/mL (≈ 9.89 µM). In addition, the inhibition entry in data set [18] was “inactive”.

Consider `CC(C)CS(=O)(=O)Oc1ccc(Oc2ccc(S(=O)(=O)CC3CS3)cc2)cc1` (stereo not given), for which the Ki in data set [1] turned out to be 790 nM; in data set [9] it was 61 nM; in [10], 380 nM. The compound further came in with a half-life at 100 µM in [3] of 16.2 min. The CLint scaled at 100 µM in data set [4] is 86.5 mL/min/kg. Also, the Activity in data set [5] and in data set [6] was 2 ×10⁻³ /s throughout. In addition, the inhibition on Stromelysin-1 [7] came out at 5%. The inhibition result in data set [19] and in data set [20] was “inactive” each time. Moreover, in “physchem”, the solubility was 1.1 µg/mL (≈ 2.49 µM).

As a reminder, the Ki is the equilibrium dissociation constant of an inhibitor or competing ligand from its target. Broadly, the inhibition is the share of the control response that was lost under treatment. The half-life is the time needed for the level to fall by half in the phase considered. Read a low half-life as rapid decline. As a reminder, the CLint scaled is a measure of how fast metabolising enzymes remove a compound, apart from limits set by blood flow. As usually defined, the solubility is how much of the substance goes into solution per volume.

These data come from ChEMBL document CHEMBL1649107, “Sulfonate-containing thiiranes as selective gelatinase inhibitors” (ACS Med Chem Lett, 2011).
